The results in this text go back to patent US20060206946A1, “Method of disrupting heme transport in nematodes and of modelling and evaluating eukaryotic heme transport” (priority 2005, published 2006).

The subject of this assay is C. elegans genes transcriptionally regulated by heme. As to the kind of experiment: Affymetrix C. elegans Genome Array: genes transcriptionally regulated by heme (4 and 500 μM vs 20 μM hemin). Format: in vivo, Caenorhabditis elegans. To be noted: low heme (4 μM). The procedure: Worms were grown at 4 μM (low) 20 μM (optimal) and 500 μM (high) hemin in axenic CeHR medium. We chose 4 and 500 μM hemin because these heme concentrations were at either end of the worm growth spectrum, and worms at these heme concentrations show a ˜24 h growth delay compared to worms grown at 20 μM hemin. […] In order to eliminate maternal effect genes, wild-type N2 worms were grown for two synchronized generations in their respective hemin concentrations to obtain F2 worms at the […] as determined by morphological analysis of the vulva. F2 worms from all three heme conditions were harvested at the same mid-L4 stage for final RNA extraction. The RNA was extracted with Trizol and treated with RNase-free DNase to remove any contaminating DNA followed by a purification on a Qiagen RNeasy column. Each experiment was performed four independent times on four separate days to ensure proper sampling and to account for experimental variations. […]
From these genes, 58 genes were excluded because they were specific to germline, sperm or oocyte development, as determined by cross-checking with publicly available microarray databases. […]
The initial statistical analysis of the Affymetrix genome array was performed at the NIDDK microarray facility using Affymetrix MAS 5.0 Suite software. […] The standard error for ΔΔCt will be calculated by the method of Livak and Schmittgen. […]

With hemin chloride, the “upregulation of R02E12.6 in microarrays” value is recorded as 16 fold.
